[ ]: non-standard residue; d: D form. Aib = CC(C)(N)C(=O)O
Experiments:
primary human T-cells = assay: Cytokine secretion on protein level in activated primary human T-cells (13-plex FACS / Luminex, supernatant); format: cell-based; settings: 10^−9M
Procedure, shortened: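 Primary T-cells from peripheral blood of healthy volunteers, or HaCaT cells, were activated with PMA/Ionomycin or IFN-γ for 48 h and treated with tripeptides. Supernatants were collected 48 h and 72 h after stimulation and cytokines (IL-1, IL-2, IL-6, IL-12p70, IL-17, IFN-γ, TNF-α) were measured by 13-plex FACS.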

[1] = tested on: human keratinocyte cell line (HaCaT); assay: Cytokine secretion on protein level in activated human keratinocyte cell line HaCaT (13-plex FACS / Luminex, supernatant); format: cell-based; settings: for IL-1 cytokine concentration / IL-2 cytokine concentration / IL-4 cytokine concentration / IL-5 cytokine concentration / IL-6 cytokine concentration / IL-9 cytokine concentration / IL-10 cytokine concentration / IL-13 cytokine concentration / IL-17 cytokine concentration / TNF-α cytokine concentration / IL-12p70 cytokine concentration / IL-22 cytokine concentration / IFN-γ cytokine concentration: 10^−9M; for IL-12p70 cytokine concentration / IL-22 cytokine concentration: excluded from the final assessment
Procedure, shortened: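 Cytokine protein in supernatant is read by multiplex FACS or Luminex. Tripeptide-treated HaCaT cells or blood-derived human T-cells are stimulated beforehand with PMA/Ionomycin or IFN-γ. The most relevant analytes are IL-1, IL-2, IL-6, IL-12p70, IL-17, IFN-γ and TNF-α, sampled 48 h and 72 h after stimulation.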

primary murine T-cells = assay: Cytokine secretion on protein level in activated primary murine T-cells (13-plex FACS / Luminex, supernatant); format: cell-based, C57BL/6 mice; settings: 10^−9M
Procedure, shortened: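 T-cells from secondary lymphatic organs of naïve C57BL/6 mice, stimulated with PMA/Ionomycin or IFN-γ; supernatant cytokines measured by 13-plex FACS 48 h and 72 h after stimulation. In another run, PMA/Ionomycin-stimulated cells received compounds at 10^−7, 10^−9 and 10^−11 M, with IFN-γ, IL-17 and IL-10 measured by Luminex.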

[2] = primary human T-cells stimulated with IFN-γ
[3] = primary human T-cells stimulated with PBS
[4] = primary human T-cells stimulated with PMA/Ionomycin
[5] = HaCaT stimulated with PMA/Ionomycin
[6] = primary murine T-cells stimulated with IFN-γ
[7] = primary murine T-cells stimulated with PBS
[8] = primary murine T-cells stimulated with PMA/Ionomycin
[9] = primary murine T-cells stimulated with PMA/Ionomycin, 1:10 dilution of the supernatants

H-Lys-[dP]-[Aib]-OH [Example 1] gave an IL-1 cytokine concentration (primary human T-cells; [2]) of 296.42 pg/mL, an IL-2 cytokine concentration (primary human T-cells; [2]) of 515.89 pg/mL and an IL-4 cytokine concentration (primary human T-cells; [2]) of 180.24 pg/mL. It also gave an IL-5 cytokine concentration (primary human T-cells; [2]) of 112.65 pg/mL, an IL-6 cytokine concentration (primary human T-cells; [2]) of 131.33 pg/mL and an IL-9 cytokine concentration (primary human T-cells; [2]) of 111.14 pg/mL. It also gave an IL-10 cytokine concentration (primary human T-cells; [2]) of 164.32 pg/mL, an IL-12p70 cytokine concentration (primary human T-cells; [2]) of 945.16 pg/mL and an IL-13 cytokine concentration (primary human T-cells; [2]) of 82.57 pg/mL. The IL-17 cytokine concentration (primary human T-cells; [2]) was 234.65 pg/mL, the IL-22 cytokine concentration (primary human T-cells; [2]) was 21389.5 pg/mL and the TNF-α cytokine concentration (primary human T-cells; [2]) was 230.57 pg/mL. It also gave an IFN-γ cytokine concentration (primary human T-cells; [3]) of 634.2 pg/mL, an IL-1 cytokine concentration (primary human T-cells; [3]) of 398.01 pg/mL and an IL-2 cytokine concentration (primary human T-cells; [3]) of 545.22 pg/mL. It also gave an IL-4 cytokine concentration (primary human T-cells; [3]) of 198.06 pg/mL, an IL-5 cytokine concentration (primary human T-cells; [3]) of 275.55 pg/mL and an IL-6 cytokine concentration (primary human T-cells; [3]) of 85.95 pg/mL. For the same substance, the IL-9 cytokine concentration (primary human T-cells; [3]) was 131.69 pg/mL, the IL-10 cytokine concentration (primary human T-cells; [3]) was 107.07 pg/mL and the IL-12p70 cytokine concentration (primary human T-cells; [3]) was 223.67 pg/mL. For the same substance, the IL-13 cytokine concentration (primary human T-cells; [3]) was 77.6 pg/mL, the IL-17 cytokine concentration (primary human T-cells; [3]) was 295.13 pg/mL and the IL-22 cytokine concentration (primary human T-cells; [3]) was 2227.62 pg/mL. It also gave a TNF-α cytokine concentration (primary human T-cells; [3]) of 203.95 pg/mL, an IFN-γ cytokine concentration (primary human T-cells; [4]) of 2516.08 pg/mL and an IL-1 cytokine concentration (primary human T-cells; [4]) of 11244.1 pg/mL. It also gave an IL-2 cytokine concentration (primary human T-cells; [4]) of 12000 pg/mL, an IL-4 cytokine concentration (primary human T-cells; [4]) of 209.61 pg/mL and an IL-5 cytokine concentration (primary human T-cells; [4]) of 204.84 pg/mL. The IL-6 cytokine concentration (primary human T-cells; [4]) was 1868.8 pg/mL, the IL-9 cytokine concentration (primary human T-cells; [4]) was 159.86 pg/mL and the IL-10 cytokine concentration (primary human T-cells; [4]) was 3032.66 pg/mL. It also gave an IL-12p70 cytokine concentration (primary human T-cells; [4]) of 925.71 pg/mL, an IL-13 cytokine concentration (primary human T-cells; [4]) of 398.98 pg/mL and an IL-17 cytokine concentration (primary human T-cells; [4]) of 2443.34 pg/mL. The IL-22 cytokine concentration (primary human T-cells; [4]) was 24324.9 pg/mL, the TNF-α cytokine concentration (primary human T-cells; [4]) was 3600 pg/mL and the IL-1 cytokine concentration ([1]; HaCaT stimulated with IFN-γ) was 251.36 pg/mL. It also gave an IL-2 cytokine concentration ([1]; HaCaT stimulated with IFN-γ) of 95.81 pg/mL, an IL-4 cytokine concentration ([1]; HaCaT stimulated with IFN-γ) of 88.93 pg/mL and an IL-5 cytokine concentration ([1]; HaCaT stimulated with IFN-γ) of 156.74 pg/mL. It also gave an IL-6 cytokine concentration ([1]; HaCaT stimulated with IFN-γ) of 704.01 pg/mL, an IL-9 cytokine concentration ([1]; HaCaT stimulated with IFN-γ) of 96.1 pg/mL and an IL-10 cytokine concentration ([1]; HaCaT stimulated with IFN-γ) of 107.72 pg/mL. The IL-13 cytokine concentration ([1]; HaCaT stimulated with IFN-γ) was 57.99 pg/mL, the IL-17 cytokine concentration ([1]; HaCaT stimulated with IFN-γ) was 612.41 pg/mL and the TNF-α cytokine concentration ([1]; HaCaT stimulated with IFN-γ) was 101.29 pg/mL. The IL-12p70 cytokine concentration ([1]; HaCaT stimulated with IFN-γ) was 1872.11 pg/mL, the IL-22 cytokine concentration ([1]; HaCaT stimulated with IFN-γ) was 18014.5 pg/mL and the IFN-γ cytokine concentration ([1]; HaCaT stimulated with PBS) was 373.53 pg/mL. For the same substance, the IL-1 cytokine concentration ([1]; HaCaT stimulated with PBS) was 224.9 pg/mL, the IL-2 cytokine concentration ([1]; HaCaT stimulated with PBS) was 87.98 pg/mL and the IL-4 cytokine concentration ([1]; HaCaT stimulated with PBS) was 85.92 pg/mL. It also gave an IL-5 cytokine concentration ([1]; HaCaT stimulated with PBS) of 181.61 pg/mL, an IL-6 cytokine concentration ([1]; HaCaT stimulated with PBS) of 77.53 pg/mL and an IL-9 cytokine concentration ([1]; HaCaT stimulated with PBS) of 112.82 pg/mL. The IL-10 cytokine concentration ([1]; HaCaT stimulated with PBS) was 166.47 pg/mL, the IL-13 cytokine concentration ([1]; HaCaT stimulated with PBS) was 64.17 pg/mL and the IL-17 cytokine concentration ([1]; HaCaT stimulated with PBS) was 562.61 pg/mL. The TNF-α cytokine concentration ([1]; HaCaT stimulated with PBS) was 87.84 pg/mL, the IL-12p70 cytokine concentration ([1]; HaCaT stimulated with PBS) was 1881.61 pg/mL and the IL-22 cytokine concentration ([1]; HaCaT stimulated with PBS) was 18087.5 pg/mL. For the same substance, the IFN-γ cytokine concentration [1, 5] was 531 pg/mL, the IL-1 cytokine concentration [1, 5] was 118.79 pg/mL and the IL-2 cytokine concentration [1, 5] was 184.58 pg/mL. It also gave an IL-4 cytokine concentration [1, 5] of 78.12 pg/mL, an IL-5 cytokine concentration [1, 5] of 141.02 pg/mL and an IL-6 cytokine concentration [1, 5] of 131.98 pg/mL. The IL-9 cytokine concentration [1, 5] was 108.97 pg/mL, the IL-10 cytokine concentration [1, 5] was 48.13 pg/mL and the IL-13 cytokine concentration [1, 5] was 49.03 pg/mL. It also gave an IL-17 cytokine concentration [1, 5] of 449.68 pg/mL, a TNF-α cytokine concentration [1, 5] of 77.12 pg/mL and an IL-12p70 cytokine concentration [1, 5] of 0 pg/mL. The IL-22 cytokine concentration [1, 5] was 8956.12 pg/mL, the “secretion / expression of pro-inflammatory cytokines (supernatant)” value ([1]; activated human keratinocytes) was “decreased secretion” and the IL-1 cytokine concentration (primary murine T-cells; [6]) was 0 pg/mL. It also gave an IL-2 cytokine concentration (primary murine T-cells; [6]) of 0 pg/mL, an IL-4 cytokine concentration (primary murine T-cells; [6]) of 0 pg/mL and an IL-5 cytokine concentration (primary murine T-cells; [6]) of 0 pg/mL. For the same substance, the IL-6 cytokine concentration (primary murine T-cells; [6]) was 6.51 pg/mL, the IL-10 cytokine concentration (primary murine T-cells; [6]) was 0 pg/mL and the IL-13 cytokine concentration (primary murine T-cells; [6]) was 0 pg/mL. For the same substance, the IL-17 cytokine concentration (primary murine T-cells; [6]) was 10.81 pg/mL, the IL-21 cytokine concentration (primary murine T-cells; [6]) was 0 pg/mL and the IL-22 cytokine concentration (primary murine T-cells; [6]) was 0 pg/mL. The IL-27 cytokine concentration (primary murine T-cells; [6]) was 179.72 pg/mL, the TNF-α cytokine concentration (primary murine T-cells; [6]) was 0 pg/mL and the IFN-γ cytokine concentration (primary murine T-cells; [7]) was 0 pg/mL. It also gave an IL-1 cytokine concentration (primary murine T-cells; [7]) of 53.09 pg/mL, an IL-2 cytokine concentration (primary murine T-cells; [7]) of 0 pg/mL and an IL-4 cytokine concentration (primary murine T-cells; [7]) of 0 pg/mL. It also gave an IL-5 cytokine concentration (primary murine T-cells; [7]) of 0 pg/mL, an IL-6 cytokine concentration (primary murine T-cells; [7]) of 0 pg/mL and an IL-10 cytokine concentration (primary murine T-cells; [7]) of 110.76 pg/mL. For the same substance, the IL-13 cytokine concentration (primary murine T-cells; [7]) was 0 pg/mL, the IL-17 cytokine concentration (primary murine T-cells; [7]) was 0 pg/mL and the IL-21 cytokine concentration (primary murine T-cells; [7]) was 0 pg/mL. The IL-22 cytokine concentration (primary murine T-cells; [7]) was 0 pg/mL, the IL-27 cytokine concentration (primary murine T-cells; [7]) was 379.78 pg/mL and the TNF-α cytokine concentration (primary murine T-cells; [7]) was 0 pg/mL. It also gave an IL-1 cytokine concentration (primary murine T-cells; [8]) of 60.61 pg/mL, an IL-4 cytokine concentration (primary murine T-cells; [8]) of 0 pg/mL and an IL-5 cytokine concentration (primary murine T-cells; [8]) of 292.17 pg/mL. For the same substance, the IL-6 cytokine concentration (primary murine T-cells; [8]) was 239.47 pg/mL, the IL-10 cytokine concentration (primary murine T-cells; [8]) was 145.26 pg/mL and the IL-13 cytokine concentration (primary murine T-cells; [8]) was 3898.42 pg/mL. It also gave an IL-17 cytokine concentration (primary murine T-cells; [8]) of 459.99 pg/mL, an IL-21 cytokine concentration (primary murine T-cells; [8]) of 0 pg/mL and an IL-22 cytokine concentration (primary murine T-cells; [8]) of 526.42 pg/mL. The IL-27 cytokine concentration (primary murine T-cells; [8]) was 426.79 pg/mL, the TNF-α cytokine concentration (primary murine T-cells; [8]) was 535.51 pg/mL and the “IFN-γ* cytokine concentration” value (primary murine T-cells; [9]) was 0 pg/mL. The “IL-2* cytokine concentration” value (primary murine T-cells; [9]) was 1354.76 pg/mL.
